Reference: PubChem BioAssay AID1963451 (Molecular Pharmacology Branch, DTP, NCI, 2024)

Test system: 521955-158-R6-J3-PDC complex spheroid growth, % test/control
Test: Anticancer human tumor 521955-158-R6-J3-PDC patient-derived pancreatic carcinoma cell line growth inhibition [Asc]
Settings: for IC50: curve of first compound; for viability, T/C: stronger effect = lower value
Method: Multicellular complex tumor spheroid response to apoptosis pathway targeting inhibitors Alrizomadlin, Pelcitoclax, and Dasminapant in combination with a variety of drugs and investigational agents in selected tumor cell lines
The MDM2 inhibitor alrizomadlin, the Bcl-2/Bcl-xL inhibitor pelcitoclax, and the IAPs inhibitor dasminapant were evaluated both individually and in combination with standard of care and investigational anticancer small molecules within a complex spheroid model of solid tumors. . Complex spheroids include a stromal component modeled by human endothelial cells (HUVEC) and fibroblasts modeled by human mesenchymal stem cells (MSCs). The concentration ranges selected for each drug and investigational agent were based upon clinically achievable concentrations if the clinical Cmax of the agent was known.
Compounds. The drugs and investigational agents: alrizomadlin (APG-115; NSC831270), pelcitoclax (APG-1252; NSC835773), dasminapant (APG-1387;NSC834197), TAK-243 (NSC785004), copanlisib (NSC809693), olaparib (NSC753686), talazoparib (NSC767125), cobimetinib (NSC 768068), eltanexor (KPT-8602, NSC 794443), abemaciclib (NSC 768073), sotorasib (NSC818433), adagrasib (NSC 831453), MRTX-1133 (NSC 836407), Iadademestat (ORY1001, NSC 806812), and RMC-4630 (NSC839698), were obtained from the NCI Developmental Therapeutics Program Chemical Repository. The FDA-approved anticancer drug set is available from the Developmental Therapeutics Program at https://dtp.cancer.gov/organization/dscb/obtaining/available plates.htm. […] The stock solutions were prepared in dimethyl sulfoxide (DMSO, Sigma-Aldrich, St. Louis, MO, cat. D2650) at 800-fold the tested concentration and stored at -70 degrees C prior to their use. All drugs and investigational agents were tested over a range starting from a high concentration at or near the clinical Cmax and decreasing in half-log increments. If the clinical Cmax for an agent had not been determined, the highest concentration tested was 10 microM.
The patient-derived cancer (PDC) cell lines include five colon adenocarcinomas: 186277-243-T-J2-PDC, 616215-338-R-J1-PDC, 439559-082-T-J2-PDC, 463943-066-T-J2-PDC, and 519858-162-T-J1-PDC; three pancreatic carcinomas: 323965-272-R-J2-PDC, 521955-158-R6-J3-PDC, and 521955-158-R2-J5-PDC; two uterine sarcomas: 327498-152-R-J2-PDC and 993429-296-R-J1-PDC; two rhabdomyosarcomas: 755483-174-R-J1-PDC and 772245-204-R-J1-PDC; two soft tissue sarcomas: 126254-015-R-J1-PDC and 494315-158-R-J1-PDC; two malignant fibrous histiocytomas: 317291-083-R-J1-PDC and 596521-263-R-J1-PDC; two breast carcinomas: 171881-019-R-J1-PDC and 885512-296-R-J2-PDC; and one ovarian carcinoma: 6556581-035-R-J-PDC were obtained from the NCI PDMR, (https://pdmr.cancer.gov). The established cell lines HSSY-2 synovial sarcoma (RRID:CVCL 8719), SYO-1 synovial sarcoma (RRID:CVCL_7146), MPNST malignant peripheral neural sheath tumor were obtained from the Sloan Kettering Institute. The following established cell lines were purchased from the American Type Culture Collection (ATCC, Manassas, VA), Sor the received from the NCI repository:, PANC-1 pancreatic carcinoma (CRL-1469, RRID:CVCL_0480), OVCAR-5 ovarian carcinoma (RRID:CVCL_1628), OVCAR-8 ovarian carcinoma (RRID:CVCL_1629), , MCF-7 breast carcinoma (CRL-12584, RRID:CVCL_0031), MDA-MB-231 breast carcinoma (CRL-12532, RRID:CVCL_0062), NCI-H1876 small cell lung carcinoma (CRL-5902, RRID:CVCL_1503), NCI-H510A small cell lung carcinoma (HTB-184, RRID:CVCL_1565), NCI-H1417 (CRL-5869, RRID:CVCL_1469), and NCI-H196 small cell lung carcinoma (CRL-5823, RRID:CVCL_1509). Dr. Peter Houghton (Greehey Children's Cancer Research Institute, University of Texas Health Science Center, San Antonio, TX) provided Rh-18 rhabdomyosarcoma (RRID:CVCL_1659). Pooled donor human umbilical vein endothelial cells (HUVEC, Lonza, cat. CC-2519) and human mesenchymal stem cells (hMSC, Lonza, cat. PT-2501) were purchased from Lonza (Walkersville, MD).
Cell Culture. […]
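Further: spheroids exposed to compounds for 7 days.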
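Wherever viability, T/C is given: 100% = DMSO vehicle control wells.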

IC50 (second compound 0.00949 µM): > 10 µM | IC50 (second compound 0.03 µM): > 10 µM | IC50 (second compound 0.0949 µM): > 10 µM | IC50 (second compound 0.3 µM): > 10 µM | IC50 (second compound 0.949 µM): > 10 µM | IC50 (second compound 3 µM): > 10 µM
Compound: O=C(c1cc(Cc2n[nH]c(=O)c3ccccc23)ccc1F)N1CCN(C(=O)C2CC2)CC1 + CCN1C(C(=O)NC23CCC(C(=O)O)(CC2)CC3)C(c2cccc(Cl)c2F)C2(C(=O)Nc3cc(Cl)ccc32)C12CCCCC2
viability, T/C (second compound 0.00949 µM, first compound 0.0316 µM): 109% | viability, T/C (second compound 0.00949 µM, first compound 0.1 µM): 98.4% | viability, T/C (second compound 0.00949 µM, first compound 0.316 µM): 92.4% | viability, T/C (second compound 0.00949 µM, first compound 1 µM): 83.7% | viability, T/C (second compound 0.00949 µM, first compound 3.16 µM): 83.4% | viability, T/C (second compound 0.00949 µM, first compound 10 µM): 89.7% | viability, T/C (second compound 0.03 µM, first compound 0.0316 µM): 127% | viability, T/C (second compound 0.03 µM, first compound 0.1 µM): 98.7% | viability, T/C (second compound 0.03 µM, first compound 0.316 µM): 94.2% | viability, T/C (second compound 0.03 µM, first compound 1 µM): 108% | viability, T/C (second compound 0.03 µM, first compound 3.16 µM): 82% | viability, T/C (second compound 0.03 µM, first compound 10 µM): 88.8% | viability, T/C (second compound 0.0949 µM, first compound 0.0316 µM): 106% | viability, T/C (second compound 0.0949 µM, first compound 0.1 µM): 98.6% | viability, T/C (second compound 0.0949 µM, first compound 0.316 µM): 88.6% | viability, T/C (second compound 0.0949 µM, first compound 1 µM): 101% | viability, T/C (second compound 0.0949 µM, first compound 3.16 µM): 96.4% | viability, T/C (second compound 0.0949 µM, first compound 10 µM): 89.8% | viability, T/C (second compound 0.3 µM, first compound 0.0316 µM): 113% | viability, T/C (second compound 0.3 µM, first compound 0.1 µM): 110% | viability, T/C (second compound 0.3 µM, first compound 0.316 µM): 135% | viability, T/C (second compound 0.3 µM, first compound 1 µM): 90.6% | viability, T/C (second compound 0.3 µM, first compound 3.16 µM): 89.3% | viability, T/C (second compound 0.3 µM, first compound 10 µM): 104% | viability, T/C (second compound 0.949 µM, first compound 0.0316 µM): 113% | viability, T/C (second compound 0.949 µM, first compound 0.1 µM): 114% | viability, T/C (second compound 0.949 µM, first compound 0.316 µM): 104% | viability, T/C (second compound 0.949 µM, first compound 1 µM): 92.1% | viability, T/C (second compound 0.949 µM, first compound 3.16 µM): 89.2% | viability, T/C (second compound 0.949 µM, first compound 10 µM): 89% | viability, T/C (second compound 3 µM, first compound 0.0316 µM): 90.8% | viability, T/C (second compound 3 µM, first compound 0.1 µM): 100% | viability, T/C (second compound 3 µM, first compound 0.316 µM): 96.5% | viability, T/C (second compound 3 µM, first compound 1 µM): 94.4% | viability, T/C (second compound 3 µM, first compound 3.16 µM): 104% | viability, T/C (second compound 3 µM, first compound 10 µM): 101%
